Columns and labels:
[1] = Tolerability of abomasal infusion in sheep; format: in vivo; conditions: DCD 15 g/day, 4 MP 1 g/day, Agrotain 80 g/day
Source text: (§1) Sheep were then transferred indoors to metabolism crates.

[2] = tested on: nitrous oxide emissions; assay: Lysimeter study: nitrous oxide emission
Source text: (§2) Undisturbed soil lysimeters (30 cm diameter×50 cm depth) were collected from a pastoral site near Lake Taupo which had been under a cutting regime with no grazing animals for over 18 months. The soil was a Taupo sandy loam (yellow brown pumice or allophanic soil). A gap (c. 1 cm) between the side of the soil cores and the PVC lysimeter housing was filled with Vaseline to stop possible edge-flow of water or urine. The lysimeters were transferred to a lysimeter facility (near Hamilton, New Zealand) where they were buried in soil so that the soil surface in the lysimeter was at ground level. However, the lysimeter casing extended about 4 cm above the soil surface to stop any lateral surface loss.
There were five replicate lysimeters with the following treatments included: a control, urine, urine+DCD, and urine+4 MP. Urine was collected from Jersey dairy cows, stored at 4° C. and applied to the lysimeters within 4 days. The urine solution was applied at 10 L/m^2 giving the equivalent of 800 kg N/ha (similar to that for a cow urine patch). For the DCD and 4 MP treatments, the inhibitor compounds were dissolved in the urine prior to application to represent urine excreted from inhibitor-administered animals. Inputs in these treatments were equivalent to 1.5 g DCD/m^2 and 0.1 g 4 MP/m^2.
Lysimeters were left to stabilise for several weeks after installation in the facility. Treatments were applied in May 2004. Pasture on the lysimeters was trimmed prior to treatment application and was regularly cut at heights and intervals similar to that under dairy cow grazing.
Nitrous oxide (N2O) emission from the main lysimeters was measured using a standard closed chamber method. Chambers were placed on the lysimeters at regular intervals during the study for periods of one hour at around midday. Gas samples were collected at 0, 30 and 60 minutes from the headspace of the chambers for N2O analysis by gas chromatography. […] Cumulative N2O emissions over the measurement period averaged 1.2 and 0.5 kg N/ha for the urine and urine+DCD treatments, giving a 57% reduction from DCD.

[3] = tested on: nitrate leaching; assay: Lysimeter study: nitrate leaching; conditions: inhibitor added to cow urine, 1.5 g DCD/m^2 or 0.1 g 4 MP/m^2; 104 days
Source text: as §2
There were five replicate lysimeters with the following treatments included: a control, urine, urine+DCD, and urine+4 MP. Urine was collected from Jersey dairy cows, stored at 4° C. and applied to the lysimeters within 4 days. The urine solution was applied at 10 L/m^2 giving the equivalent of 800 kg N/ha (similar to that for a cow urine patch). […]
Nitrate leaching from lysimeters was measured by collection of leachate draining from the base of each lysimeter. This drainage water was collected at regular intervals and analysed for nitrate concentration. […]

[4] = tested on: nitrification of urine/urea-N in soil; assay: Soil incubation with urine from abomasally infused sheep: nitrification; conditions: urine from sheep with abomasal infusion, DCD 15 g/day or 4 MP 1 g/day; soil incubated at 20° C.
Description: (§3) This was determined by firstly measuring the urea concentration in urine samples and adjusting the urine volume (or in a few samples with low concentrations, urea was added) so that the same rate of urea-N was added to soil (100 g) in plastic bags. The soil was a Horotiu silt loam derived from volcanic ash taken from a pastoral site which had been ungrazed for over 6 months so that no residual animal urine was present.
(§4) The urine-treated soil samples were incubated at 20° C. and sub-samples were removed at regular intervals over time for analysis of ammonium and nitrate in 2M KCl extracts using standard methods. The level of inhibition of nitrification was evident from less nitrate formation (FIG. 4B; P<0.001 at all incubation times) and higher ammonium levels (FIG. 4A; P<0.001 at all incubation times). Inhibition of nitrification was higher for DCD than for 4 MP (P<0.01), with an average reduction in nitrate production relative to the control of 96 and 51%, respectively (FIG. 4C). This difference may have been influenced by the rate of inhibitor used.

[5] = DCD in urine of sheep, abomasal infusion (HPLC); format: in vivo
Source text: as §1
Infusion of treatments continued for 4 days, after which there was an 11 day non-treatment clearance/rest period before repeating this phase. Sheep allocation to treatments changed over each period in a statistical cross-over design (defined by statisticians) so that 11 sheep had been subjected to each of 3 treatments (control, DCD and 4 MP), and so that within- and between-sheep variability could be evaluated.
Presence of DCD in urine samples was determined using high-performance liquid chromotography. […] There was some variability between sheep in DCD concentrations in urine, but this reflected differences in urination volumes (FIG. 3) so that there was much less difference in the amount of DCD excreted per urination. Concentrations of DCD in urine declined to negligible levels within 7 days after ceasing infusion (FIG. 2).

[6] = Excretion efficiency of DCD in sheep; format: in vivo
[7] = Excretion efficiency of DCD in non-lactating dairy cows (metabolism stall study); format: in vivo
Description: The efficiency of excretion of DCD in urine relative to DCD administered to animals was determined in a metabolism stall study involving five non-lactating dairy cows. The study was conducted on the DairyNZ Lye Farm, near Hamilton, New Zealand.
Each cow was fed a diet of pasture silage.
The five cows were administered DCD via addition to the pasture silage feed at a dosage rate was 30 g/animal/day.
Animal waste collectors were fitted to animals and configured to collect urine and dung separately. The animal waste was analysed for DCD concentration using known analysis techniques.

[8] = tested on: conversion of nitrogen containing compounds; conditions: cited from earlier work
[9] = tested on: nitrification inhibition in soil; assay: Laboratory soil incubation with urine from DCD-treated cows
Description: A laboratory incubation experiment was set up to confirm that the DCD contained in urine from DCD-treated cows retained its nitrification inhibition properties after application to soil. Urine from DCD-treated cows was compared to urine from non-treated cows spike with varying rates of DCD.

[10] = Freezing of urine: presence and activity of inhibitors; format: physicochemical; conditions: urine frozen at −20° C.
Source text: During each infusion period the sheep were housed in metabolism crates to allow daily collection of urine and faeces samples. Single urination event samples were also collected from each sheep every day and were frozen for subsequent analysis of inhibitor content and for inhibitory activity in soil.

[11] = DCD in urine of sheep, ruminal infusion (HPLC); format: in vivo
Description: (§5) The 12 sheep were randomly allocated to one of 2 treatments; water infusion (Control) or DCD at 15 g/day (DCD group). Experimental methodology was the same as for the abomasal infusion study in that there was a 4 day period of continuous infusion followed by an 11 day non-treatment clearance/rest period.
Presence of DCD in urine samples was determined using high-performance liquid chromotography. […] However, concentrations of DCD in urine were lower at day 1 of infusion than days 2-4, as expected because of time for rumen processing. Levels declined after ceasing infusion and were negligible within 7 days (FIG. 5).

[12] = DCD in urine of dairy heifers drenched daily; format: in vivo; conditions: daily drench
Source text: In addition, in a separate study, dairy heifers were drenched daily with a DCD solution.

[13] = tested on: nitrification of urine/urea-N in soil; assay: Soil incubation with urine from ruminally infused sheep: nitrification; conditions: urine from sheep with ruminal infusion of DCD 15 g/day
Description: as §3, §4, §5

[14] = cows, 30 g/animal/day in feed, at equilibrium

Cc1cn[nH]c1 [4 MP, 4 methylpyrazole]
effect of infusion on sheep (live-weight changes, body condition, general bodily function, feed intake) [1]: no adverse effect | effect on nitrous oxide emissions ([2]; inhibitor added to urine, lysimeters): reducing | reduction in cumulative nitrate leaching versus urine treatment [3]: 71% | average reduction in nitrate production relative to the control [4]: 51%

N#CN=C(N)N [DCD, dicyandiamide]
DCD concentration in urine during the infusion period ([5]; DCD 15 g/day abomasal infusion, versus control, P<0.001): highly significant increase | time for DCD in urine to decline to negligible levels after ceasing infusion ([5]; abomasal infusion 15 g/day): ≤ 7 days | efficiency of transfer to urine [6]: approximately 86% | effect of infusion on sheep (live-weight changes, body condition, general bodily function, feed intake) [1]: no adverse effect | reduction in cumulative N2O emissions ([2]; urine+DCD versus urine): 57% | cumulative N2O emissions over the measurement period ([2]; urine+DCD, 1.5 g DCD/m^2, urine alone 1.2): 0.5 kg N/ha | efficiency of excretion in urine ([7]; cattle such as beef or dairy): 80-81% | DCD administered recovered in dung [7, 14]: 10% | DCD administered recovered in urine [7, 14]: 81% | effectiveness at a rate of approximately 5 kg/ha ([8]; DCD rate on land approximately 5 kg/ha): relatively ineffective | improvement at rates in excess of 10 kg/ha compared to 10 kg/ha ([8]; application to land, most soils, rainfall below about 1500 mm/year): negligible improvements | reduction in cumulative nitrate leaching versus urine treatment [3]: 56% | DCD in urine from DCD-treated cows, measured rate equivalent ([9]; FIG. 11 legend): 51 kg DCD/ha | nitrification inhibition in soil of DCD in urine from treated cows versus urine spiked with an equivalent level of DCD ([9]; laboratory incubation): same level of nitrification inhibition | effect of freezing urine on presence or activity [10]: no effect | DCD excretion in urine over the infusion period ([11]; DCD 15 g/day ruminal infusion, 4 days): high levels of DCD were absorbed and excreted in urine in an unaltered form | time for DCD in urine to become negligible after ceasing infusion ([11]; ruminal infusion 15 g/day): ≤ 7 days | DCD concentration in urine over a 90 day treatment period [12]: remained relatively constant | average reduction in nitrate production relative to the control [4]: 96% | average reduction in nitrate production [13]: 81%

From patent US20140190225A1, “ALTERING ANIMAL WASTE COMPOSITION” (AgResearch Limited, priority 2004, published 2014)
